Legend:
Format in all cases: in vivo
[1] = system: barnyardgrass (Echinochloa crus-galli, ECHCG); test: Pre-emerge test, greenhouse herbicide activity screening; settings: rating scale 0-100, 14 days after application
Outline: (§1)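 Compounds in acetone were track-sprayed at 187 l/ha, 15–1000 g ai/ha, onto sandy loam pots. Pre-emerge seeds were sown one day before spraying, with surface watering afterwards. Post-emerge plants were at the 2–3 leaf stage and sprayed with 0.25% v/v non-ionic surfactant. Injury was rated 0–100 at 14 days.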

[2] = system: common ragweed (Ambrosia artemisizfolia L., AMBEL); test: as above; settings: rating scale 0-100, 14 days after application
Outline: as §1

[3] = system: velvetleaf (Abutilon theophrasti, ABUTH); test: as above; settings: rating scale 0-100, 14 days after application
Outline: as §1

[4] = system: johnsongrass (Sorghum halepense, SORHA); test: as above; settings: rating scale 0-100, 14 days after application
Outline: as §1

[5] = system: large crabgrass (Digitaria sanguinalis, DIGSA); test: as above; settings: rating scale 0-100, 14 days after application
Outline: as §1

[6] = system: ivyleaf morningglory (Ipomoea hederacea, IPOHE); test: as above; settings: rating scale 0-100, 14 days after application
Outline: as §1

[7] = system: lambsquarters (Chenopodium album, CHEAL); test: as above; settings: rating scale 0-100, 14 days after application
Outline: as §1

[8] = system: green foxtail (Setaria viridis, SETVI); test: as above; settings: rating scale 0-100, 14 days after application
Outline: as §1

[9] = system: sicklepod (Cassia obtusifolia, CASOB); test: as above; settings: rating scale 0-100, 14 days after application
Outline: as §1

[10] = system: barnyardgrass (Echinochloa crus-galli, ECHCG); test: Post-emerge test, greenhouse herbicide activity screening; settings: rating scale 0-100 (0 no damage, 100 complete death), 14 days after application
Outline: (§2)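 Visual ratings on a 0-100 scale (0 no damage, 100 all plants dead) were taken at 14 days after treatment. Rates of 15-1000 g ai/ha in acetone, 187 l/ha, were sprayed onto soil one day after planting (pre-emerge) or onto 2-3 leaf plants with 0.25% v/v surfactant (post-emerge).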

[11] = system: velvetleaf (Abutilon theophrasti, ABUTH); test: as above; settings: rating scale 0-100 (0 no damage, 100 complete death), 14 days after application
Outline: as §2

[12] = system: johnsongrass (Sorghum halepense, SORHA); test: as above; settings: rating scale 0-100 (0 no damage, 100 complete death), 14 days after application
Outline: as §2

[13] = system: large crabgrass (Digitaria sanguinalis, DIGSA); test: as above; settings: rating scale 0-100 (0 no damage, 100 complete death), 14 days after application
Outline: as §2

[14] = system: redroot pigweed (Amaranthus retroflexus, AMARE); test: as above; settings: rating scale 0-100 (0 no damage, 100 complete death), 14 days after application
Outline: as §2

[15] = system: ivyleaf morningglory (Ipomoea hederacea, IPOHE); test: as above; settings: rating scale 0-100 (0 no damage, 100 complete death), 14 days after application
Outline: as §2

[16] = system: lambsquarters (Chenopodium album, CHEAL); test: as above; settings: rating scale 0-100 (0 no damage, 100 complete death), 14 days after application
Outline: as §2

[17] = system: green foxtail (Setaria viridis, SETVI); test: as above; settings: rating scale 0-100 (0 no damage, 100 complete death), 14 days after application
Outline: as §2

[18] = system: sicklepod (Cassia obtusifolia, CASOB); test: as above; settings: rating scale 0-100 (0 no damage, 100 complete death), 14 days after application
Outline: as §2

[19] = system: redroot pigweed (Amaranthus retroflexus, AMARE); test: Pre-emerge test, greenhouse herbicide activity screening; settings: rating scale 0-100, 14 days after application
Outline: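 Rating: 0–100 visual injury, 14 DAA. Application: acetone, 187 l/ha, 15–1000 g ai/ha, flat-fan track sprayer with nozzle 40–45 cm above soil or canopy. Post-emerge runs used 0.25% v/v surfactant on 2–3 leaf plants.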

[20] = system: field corn (Zea mays L., var. Dekalb 535, CORN); test: Post-emerge test, crop safety; settings: rating scale 0-100 (0 no damage, 100 complete death), 14 days after application
Outline: as §1

[21] = system: upland rice (Oryza sp., var. Tebonnet, RICE); test: Post-emerge test, crop safety; settings: rating scale 0-100 (0 no damage, 100 complete death), 14 days after application
Outline: as §1

[22] = system: field corn (Zea mays L., var. Dekalb 535, CORN); test: Pre-emerge test, crop safety; settings: rating scale 0-100, 14 days after application
Outline: (§3)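 Plants grown in 10 cm pots of sandy loam mix received acetone-dissolved compounds through a moving flat-fan nozzle. Doses ranged from 15 to 1000 g ai/ha. Pre-emerge pots were seeded one day earlier, post-emerge pots 8–21 days earlier. Fourteen days on, each pot was graded 0–100 for damage.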

[23] = system: upland rice (Oryza sp., var. Tebonnet, RICE); test: Pre-emerge test, crop safety; settings: rating scale 0-100, 14 days after application
Outline: as §3

CCCCCOC(=O)C(Cl)Cc1c(OC)c(Cl)cc(F)c1-n1c(=O)cc(C(F)(F)F)n(C)c1=O (single isomer, unassigned) [14-11]
Pre-emerge herbicidal activity, phytotoxicity rating ECHCG ([1]; 63 g ai/ha): 0 | Pre-emerge herbicidal activity, phytotoxicity rating ECHCG ([1]; 250 g ai/ha): 0 | Pre-emerge herbicidal activity, phytotoxicity rating AMBEL ([2]; 63 g ai/ha): 0 | Pre-emerge herbicidal activity, phytotoxicity rating AMBEL ([2]; 250 g ai/ha): 100 | Pre-emerge herbicidal activity, phytotoxicity rating ABUTH ([3]; 63 g ai/ha): 50 | Pre-emerge herbicidal activity, phytotoxicity rating ABUTH ([3]; 250 g ai/ha): 100 | Pre-emerge herbicidal activity, phytotoxicity rating SORHA ([4]; 63 g ai/ha): 0 | Pre-emerge herbicidal activity, phytotoxicity rating SORHA ([4]; 250 g ai/ha): 0 | Pre-emerge herbicidal activity, phytotoxicity rating DIGSA ([5]; 63 g ai/ha): 50 | Pre-emerge herbicidal activity, phytotoxicity rating DIGSA ([5]; 250 g ai/ha): 100 | Pre-emerge herbicidal activity, phytotoxicity rating IPOHE ([6]; 63 g ai/ha): 30 | Pre-emerge herbicidal activity, phytotoxicity rating IPOHE ([6]; 250 g ai/ha): 50 | Pre-emerge herbicidal activity, phytotoxicity rating CHEAL ([7]; 63 g ai/ha): 70 | Pre-emerge herbicidal activity, phytotoxicity rating CHEAL ([7]; 250 g ai/ha): 100 | Pre-emerge herbicidal activity, phytotoxicity rating SETVI ([8]; 63 g ai/ha): 0 | Pre-emerge herbicidal activity, phytotoxicity rating SETVI ([8]; 250 g ai/ha): 50 | Pre-emerge herbicidal activity, phytotoxicity rating CASOB ([9]; 63 g ai/ha): 0 | Pre-emerge herbicidal activity, phytotoxicity rating CASOB ([9]; 250 g ai/ha): 0 | Post-emerge Herbicidal Activity, phytotoxicity rating ECHCG ([10]; Rate 63 g ai/ha): 100 | Post-emerge Herbicidal Activity, phytotoxicity rating ECHCG ([10]; Rate 250 g ai/ha): 100 | Post-emerge Herbicidal Activity, phytotoxicity rating ABUTH ([11]; Rate 63 g ai/ha): 80 | Post-emerge Herbicidal Activity, phytotoxicity rating ABUTH ([11]; Rate 250 g ai/ha): 100 | Post-emerge Herbicidal Activity, phytotoxicity rating SORHA ([12]; Rate 63 g ai/ha): 50 | Post-emerge Herbicidal Activity, phytotoxicity rating SORHA ([12]; Rate 250 g ai/ha): 99 | Post-emerge Herbicidal Activity, phytotoxicity rating DIGSA ([13]; Rate 63 g ai/ha): 99 | Post-emerge Herbicidal Activity, phytotoxicity rating DIGSA ([13]; Rate 250 g ai/ha): 100 | Post-emerge Herbicidal Activity, phytotoxicity rating AMARE ([14]; Rate 63 g ai/ha): 95 | Post-emerge Herbicidal Activity, phytotoxicity rating AMARE ([14]; Rate 250 g ai/ha): 100 | Post-emerge Herbicidal Activity, phytotoxicity rating IPOHE ([15]; Rate 63 g ai/ha): 90 | Post-emerge Herbicidal Activity, phytotoxicity rating IPOHE ([15]; Rate 250 g ai/ha): 100 | Post-emerge Herbicidal Activity, phytotoxicity rating CHEAL ([16]; Rate 63 g ai/ha): 50 | Post-emerge Herbicidal Activity, phytotoxicity rating CHEAL ([16]; Rate 250 g ai/ha): 100 | Post-emerge Herbicidal Activity, phytotoxicity rating SETVI ([17]; Rate 63 g ai/ha): 80 | Post-emerge Herbicidal Activity, phytotoxicity rating SETVI ([17]; Rate 250 g ai/ha): 100 | Post-emerge Herbicidal Activity, phytotoxicity rating CASOB ([18]; Rate 63 g ai/ha): 50 | Post-emerge Herbicidal Activity, phytotoxicity rating CASOB ([18]; Rate 250 g ai/ha): 70 | Pre-emerge herbicidal activity, phytotoxicity rating AMARE ([19]; 63 g ai/ha): 100 | Pre-emerge herbicidal activity, phytotoxicity rating AMARE ([19]; 250 g ai/ha): 100 | Post-emerge phytotoxicity rating CORN (crop damage) ([20]; Rate 63 g ai/ha): 100 | Post-emerge phytotoxicity rating CORN (crop damage) ([20]; Rate 250 g ai/ha): 100 | Post-emerge phytotoxicity rating RICE (crop damage) ([21]; Rate 63 g ai/ha): 10 | Post-emerge phytotoxicity rating RICE (crop damage) ([21]; Rate 250 g ai/ha): 20 | Pre-emerge phytotoxicity rating, crop damage CORN ([22]; 63 g ai/ha): 0 | Pre-emerge phytotoxicity rating, crop damage CORN ([22]; 250 g ai/ha): 0 | Pre-emerge phytotoxicity rating, crop damage RICE ([23]; 63 g ai/ha): 0 | Pre-emerge phytotoxicity rating, crop damage RICE ([23]; 250 g ai/ha): 0

From patent publication US6355799B1, “Substituted benzene compounds, process for their preparation, and herbicidal and defoliant compositions containing them” (ISK Americas Incorporated, priority 1997, dated 2002)
